US6060077A, “Unit galenical formulation for local hormonotherapy of vaginal dryness” (priority 1995, dated 2000)
“Also recorded” adds a separate entry of the source.

Key:
[1] = system: receptors with high estradiol affinity in the vaginal epithelium; conditions: cited from earlier work; for affinity for vaginal epithelium receptors (decreasing order): female
[2] = system: vaginal estrogenic receptors; conditions: cited from earlier work; for agonist/antagonist properties: estrogenic receptors; for effect on endogenous estradiol: in the presence of endogenous estrogen
[3] = plasma estrone after vaginal administration of 17β-estradiol; format: in vivo, human (patients)
Procedure: In all cases, the estrone concentrations never exceeded 30 pg/ml.
(§1) General conclusion: After a single vaginal administration of a soft capsule with 2.5 μg, 5 μg and 10 μg doses of 17β-estradiol, clinical tolerance was excellent for the group of six subjects included in the trial. Biological tolerance was also excellent.

[4] = system: vaginal mucous membrane / endometrium; conditions: 25 μg of 17β-estradiol per vaginal tablet, cited from earlier work
[5] = system: vulvo-vaginal mucous membrane; conditions: in vivo; cited from earlier work
[6] = plasma estradiol after vaginal administration (pharmacokinetic analysis); format: in vivo, human (patients)
Procedure: Pharmacokinetic analysis: From a pharmacokinetic viewpoint, the plasmic estradiol concentrations remained unquantifiable in the group of subjects after administration of low doses (2.5 μg and 5 μg) and in half of the subjects at a high dose (10 μg).
as §1

[7] = 10 μg, micronized free form, vaginal

Row | Compound | affinity for vaginal epithelium receptors (decreasing order) [1] | agonist/antagonist properties [2] | effect on endogenous estradiol [2] | plasmic estrone amounts after vs before treatment ([3]; capsule with 10 μg dose of 17β-estradiol, the other subjects) | estrone concentrations after vs before treatment ([3]; in general, after 17β-estradiol 2.5 μg, 5 μg and 10 μg, soft capsule) | proportionality between estrone Cmax or SSC and the administered dose ([3]; in vivo) | cytological, histological and clinical improvement in the vaginal mucous membrane ([4]; daily) | endometrial proliferation ([4]; daily) | systemic passage of 17β-estradiol ([4]; indicated by endometrial proliferation) | local blood flow [5] | quantity of vaginal secretions [5] | transvaginal potential difference [5] | trophic effect in the vulvo-vaginal mucous membrane [5] | vaginal pH [5] | vaginal absorption of estradiol from soft capsules ([6]; 2.5 μg to 10 μg doses of 17β-estradiol) | systemic passage [6, 7] | time of plasmic peak after administration [6, 7] | vaginal resorption of estradiol ([6]; capsules with 2.5 μg and 5 μg doses of 17β-estradiol) | affinity for vaginal estrogenic receptors ([1]; in words) | intrinsic activity relative to 17β-estradiol ([2]; compared with 17β-estradiol)
1 | C[C@]12CC[C@@H]3c4ccc(O)cc4CC[C@H]3[C@@H]1CCC2=O [estrone] | 17β-estradiol>estriol>estrone |  |  |  |  |  |  |  |  |  |  |  |  |  |  |  |  |  |  | 
2 | C[C@]12CC[C@@H]3c4ccc(O)cc4CC[C@H]3[C@@H]1CC[C@@H]2O [17β-estradiol] | 17β-estradiol>estriol>estrone | physiological estrogenic agonist; also recorded: pure agonist; also recorded: complete agonist | adding effects in the presence of endogenous estrogen | comparable with the amounts measured before treatment | of the same order of magnitude as those measured before treatment | no proportionality | desired cytological, histological and clinical improvement | endometrial proliferation was noted in certain patients | systemic passage | increase | increase | increase the transvaginal potential difference | recognized and has been widely described | reduce the vaginal pH | substantially zero | only slight systemic passage is observed | about one | zero | high affinity | 
3 | C[C@]12CC[C@@H]3c4ccc(O)cc4CC[C@H]3[C@@H]1C[C@@H](O)[C@@H]2O [estriol] | 17β-estradiol>estriol>estrone | partially agonist properties and even antagonist properties | antagonistic effect on endogenous estradiol |  |  |  |  |  |  |  |  |  |  |  |  |  |  |  |  | less active
